From PubChem BioAssay AID330 (DTP/NCI, 2004)
Several values for one entry are separate records, joined by “and”; a condition that tells them apart may be missing. Equal values may be shown once. Inconclusive results and toxic doses are left out.

Tested on: P388 leukemia ip, CD2F1 mice, survival T/C
Assay: NCI In Vivo Anticancer Drug Screen. Data for tumor model P388 Leukemia (intraperitoneal) in CD2F1 (CDF1) mice
Conditions: endpoint: median survival time, higher = longer survival
How it was run: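 Mice carrying the transplanted tumor received test compound or vehicle. Survival was recorded in each group, and the value is the treated-group measurement divided by that of the vehicle-treated control group.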

[1] = dose: 60.0 mg/kg/injection, schedule: Q01DX005 (ip), vehicle: saline with Tween-80
[2] = dose: 200.0 mg/kg/injection, schedule: Q01DX005 (ip), vehicle: saline with Tween-80
[3] = dose: 100.0 mg/kg/injection, schedule: Q01DX009 (ip), vehicle: saline with Tween-80
[4] = dose: 200.0 mg/kg/injection, schedule: Q01DX009 (ip), vehicle: saline with Tween-80
[5] = dose: 50.0 mg/kg/injection, schedule: Q01DX009 (ip), vehicle: saline with Tween-80

## O=C1[C@@H]2[C@H](C(=O)N1c1ccccc1)[C@H]1CC[C@H]2N1C(=O)c1ccccc1
[1]
  T/C: 96 % of control
dose: 120.0 mg/kg/injection, schedule: Q01DX005 (ip), vehicle: saline with Tween-80
  T/C: 100 % of control
dose: 240.0 mg/kg/injection, schedule: Q01DX005 (ip), vehicle: saline with Tween-80
  T/C: 88 % of control

## C/C(=N\NC(=S)Nc1cccc2cccc(S(=O)(=O)O)c12)c1ccccn1
dose: 50.0 mg/kg/injection, schedule: Q01DX005 (ip), vehicle: saline with Tween-80
  T/C: 102 % of control
dose: 100.0 mg/kg/injection, schedule: Q01DX005 (ip), vehicle: saline with Tween-80
  T/C: 100 % of control
[2]
  T/C: 112 % of control

## [N-]=[N+]=NC(=O)c1cnn(-c2ccccc2)c1N
dose: 15.0 mg/kg/injection, schedule: Q01DX005 (ip), vehicle: saline with Tween-80
  T/C: 101 % of control
dose: 30.0 mg/kg/injection, schedule: Q01DX005 (ip), vehicle: saline with Tween-80
  T/C: 97 % of control
[1]
  T/C: 106 % of control and 95 % of control

## CCOC(=O)C/C(C)=N\NC(=O)c1ccncc1
dose: 37.0 mg/kg/injection, schedule: Q01DX009 (ip), vehicle: saline with Tween-80
  T/C: 97 % of control
dose: 75.0 mg/kg/injection, schedule: Q01DX009 (ip), vehicle: saline with Tween-80
  T/C: 105 % of control
dose: 150.0 mg/kg/injection, schedule: Q01DX009 (ip), vehicle: saline with Tween-80
  T/C: 106 % of control

## CC1(C)OC2CCC3OC(=O)C(C)(Cl)C3C2O1 (stereo unspecified)
dose: 12.5 mg/kg/injection, schedule: Q01DX009 (ip), vehicle: other
  T/C: 116 % of control
dose: 25.0 mg/kg/injection, schedule: Q01DX009 (ip), vehicle: other
  T/C: 107 % of control
dose: 50.0 mg/kg/injection, schedule: Q01DX009 (ip), vehicle: other
  T/C: 99 % of control
dose: 100.0 mg/kg/injection, schedule: Q01DX009 (ip), vehicle: other
  T/C: 116 % of control

## COc1cc(C2c3cc4c(c(OC5OC(CO)C(O)C5O)c3CC3COC(=O)C32)OCO4)cc(OC)c1OC (stereo unspecified)
dose: 100.0 mg/kg/injection, schedule: Q01DX001 (ip), vehicle: Klucel (hydroxypropylcellulose) (HPC)
  T/C: 108 % of control
dose: 200.0 mg/kg/injection, schedule: Q01DX001 (ip), vehicle: Klucel (hydroxypropylcellulose) (HPC)
  T/C: 108 % of control
dose: 400.0 mg/kg/injection, schedule: Q01DX001 (ip), vehicle: Klucel (hydroxypropylcellulose) (HPC)
  T/C: 113 % of control

## c1cc(Oc2ccc3ccncc3c2)c2ccncc2c1
dose: 100.0 mg/kg/injection, schedule: Q01DX001 (ip), vehicle: saline with Tween-80
  T/C: 100 % of control
dose: 200.0 mg/kg/injection, schedule: Q01DX001 (ip), vehicle: saline with Tween-80
  T/C: 100 % of control
dose: 400.0 mg/kg/injection, schedule: Q01DX001 (ip), vehicle: saline with Tween-80
  T/C: 95 % of control

## Nc1ccc2cc3ccc(N)cc3nc2c1
dose: 12.5 mg/kg/injection, schedule: Q01DX009 (ip), vehicle: saline
  T/C: 122 % of control
dose: 15.0 mg/kg/injection, schedule: Q01DX005 (ip), vehicle: saline
  T/C: 109 % of control
dose: 50.0 mg/kg/injection, schedule: Q01DX009 (ip), vehicle: saline
  T/C: 95 % of control
dose: 50.0 mg/kg/injection, schedule: Q04DX003 (ip), vehicle: saline
  T/C: 86 % of control

## COc1ccc(CC(=O)O)cc1OC (tested in a mixture with another compound)
dose: 100.0 mg/kg/injection, schedule: Q01DX009 (ip), vehicle: saline sonified
  T/C: 100 % of control
dose: 200.0 mg/kg/injection, schedule: Q01DX009 (ip), vehicle: saline sonified
  T/C: 100 % of control
dose: 400.0 mg/kg/injection, schedule: Q01DX009 (ip), vehicle: saline sonified
  T/C: 100 % of control

## N#Cc1ccccc1CC(O)(c1ccccc1)c1ccccc1
[3]
  T/C: 99 % of control
[4]
  T/C: 100 % of control
dose: 400.0 mg/kg/injection, schedule: Q01DX009 (ip), vehicle: saline with Tween-80
  T/C: 91 % of control

## CCOC(=O)CCC(C)(C#N)c1ccccc1 (stereo unspecified)
dose: 12.5 mg/kg/injection, schedule: Q01DX009 (ip), vehicle: saline with Tween-80
  T/C: 94 % of control
dose: 25.0 mg/kg/injection, schedule: Q01DX009 (ip), vehicle: saline with Tween-80
  T/C: 99 % of control
[5]
  T/C: 103 % of control
[3]
  T/C: 87 % of control

## COc1cccc2c1C(=O)c1c(O)c3c(c(O)c1C2=O)CC(O)(/C(C)=N/NC(=O)CCCCCCC(=O)N/N=C(\C)C1(O)Cc2c(O)c4c(c(O)c2C(OC2CC(N)C(O)C(C)O2)C1)C(=O)c1c(OC)cccc1C4=O)CC3OC1CC(N)C(O)C(C)O1 (stereo unspecified)
dose: 2.0 mg/kg/injection, schedule: Q01DX009 (ip), vehicle: water
  T/C: 162 % of control
dose: 4.0 mg/kg/injection, schedule: Q01DX009 (ip), vehicle: water
  T/C: 212 % of control
dose: 8.0 mg/kg/injection, schedule: Q01DX009 (ip), vehicle: water
  T/C: 245 % of control
dose: 16.0 mg/kg/injection, schedule: Q01DX009 (ip), vehicle: water
  T/C: 87 % of control

## O=Nc1c(O)n(-c2ccccc2)c(=O)[nH]c1=O
dose: 50.0 mg/kg/injection, schedule: Q04DX002 (ip), vehicle: suspension in saline
  T/C: 100 % of control
dose: 100.0 mg/kg/injection, schedule: Q04DX002 (ip), vehicle: suspension in saline
  T/C: 101 % of control
dose: 200.0 mg/kg/injection, schedule: Q04DX002 (ip), vehicle: suspension in saline
  T/C: 101 % of control

## C1CN1P1(N2CC2)=NP(N2CC2)(N2CC2)=NP(N2CC2)(N2CC2)=N1
dose: 5.0 mg/kg/injection, schedule: Q01DX009 (ip), vehicle: saline
  T/C: 231 % of control
dose: 10.0 mg/kg/injection, schedule: Q01DX009 (ip), vehicle: saline
  T/C: 222 % of control
dose: 20.0 mg/kg/injection, schedule: Q01DX009 (ip), vehicle: saline
  T/C: 122 % of control

## CC1CCCC2=C1C(O)c1c(N)cccc1C2O (stereo unspecified)
dose: 50.0 mg/kg/injection, schedule: Q01DX005 (ip), vehicle: Klucel (hydroxypropylcellulose) (HPC)
  T/C: 96 % of control
dose: 100.0 mg/kg/injection, schedule: Q01DX005 (ip), vehicle: Klucel (hydroxypropylcellulose) (HPC)
  T/C: 101 % of control
dose: 200.0 mg/kg/injection, schedule: Q01DX005 (ip), vehicle: Klucel (hydroxypropylcellulose) (HPC)
  T/C: 94 % of control

## CCCCN(CCCC)CCC(O)c1cc(C(F)(F)F)nc2c(C(F)(F)F)cccc12 (stereo unspecified)
[5]
  T/C: 104 % of control
[3]
  T/C: 114 % of control
[4]
  T/C: 100 % of control

## CC1=CC(=O)C(O)=C/C1=C\C=C\c1ccccc1
dose: 2.5 mg/kg/injection, schedule: Q01DX009 (ip), vehicle: saline with Tween-80
  T/C: 110 % of control
dose: 5.0 mg/kg/injection, schedule: Q01DX009 (ip), vehicle: saline with Tween-80
  T/C: 104 % of control
dose: 10.0 mg/kg/injection, schedule: Q01DX009 (ip), vehicle: saline with Tween-80
  T/C: 103 % of control

## COc1ccc(C(=O)Cc2nc3nnc(NC(=O)Nc4ccc(Cl)cc4)n3nc2CC(=O)c2ccc(OC)cc2)cc1
dose: 60.0 mg/kg/injection, schedule: Q01DX005 (ip), vehicle: saline
  T/C: 97 % of control
dose: 120.0 mg/kg/injection, schedule: Q01DX005 (ip), vehicle: saline
  T/C: 94 % of control
dose: 240.0 mg/kg/injection, schedule: Q01DX005 (ip), vehicle: saline
  T/C: 95 % of control

## CSC(=S)n1nc(C)c(N=Nc2cc(Cl)ccc2Cl)c1C
dose: 6.25 mg/kg/injection, schedule: Q01DX005 (ip), vehicle: saline with Tween-80
  T/C: 93 % of control
dose: 12.5 mg/kg/injection, schedule: Q01DX005 (ip), vehicle: saline with Tween-80
  T/C: 99 % of control
dose: 25.0 mg/kg/injection, schedule: Q01DX005 (ip), vehicle: saline with Tween-80
  T/C: 95 % of control
[2]
  T/C: 98 % of control

## O=C1C2=C(Nc3cc([N+](=O)[O-])ccc3N2)OC1c1ccc(Cl)cc1Cl (stereo unspecified)
dose: 30.0 mg/kg/injection, schedule: Q01DX005 (ip), vehicle: Klucel (hydroxypropylcellulose) (HPC)
  T/C: 101 % of control
dose: 60.0 mg/kg/injection, schedule: Q01DX005 (ip), vehicle: Klucel (hydroxypropylcellulose) (HPC)
  T/C: 89 % of control and 94 % of control
dose: 120.0 mg/kg/injection, schedule: Q01DX005 (ip), vehicle: Klucel (hydroxypropylcellulose) (HPC)
  T/C: 99 % of control
dose: 240.0 mg/kg/injection, schedule: Q01DX005 (ip), vehicle: Klucel (hydroxypropylcellulose) (HPC)
  T/C: 111 % of control
